According to paper PMC6409085, “Three odorant-binding proteins are involved in the behavioral response of Sogatella furcifera to rice plant volatiles” (PeerJ, 2019):
Several values for one entry are separate records, joined by “and”; a condition that tells them apart may be missing. Equal values may be shown once.

Legend:
S. furcifera adults = test: Y-tube olfactometer behavioral trials; type: in vivo, Sogatella furcifera; details: odorant 50 µL/L vs hexane
How it was run: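 Single S. furcifera adults (2 days post-emergence, starved 0.5 h) chose between odorant (100 µL of 50 µL/L on filter paper) and hexane control in a glass Y-tube, charcoal-filtered humidified air 300 mL/min per arm, 25 ± 1 °C, 50% RH. Choice scored if insect passed half an arm and stayed >1 min within 10 min; 45 insects per compound, chi-squared test.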

SfurOBP3 = SfurOBP3 (Sogatella furcifera, UniProt V5T818); test: biochemical; type: binding; details: for Fluorescence competitive binding assay, fluorescence intensity: OBP3, three replicate columns
How it was run: (§1)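 1-NPN displacement assay with odorant competitor at 2–20 µM; protein and probe both 2.0 µM at pH 7.4. Ki is calculated from IC50 using the protein/1-NPN dissociation constant.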

SfurOBP1 = SfurOBP1 (Sogatella furcifera, UniProt V5T8N5); test: biochemical; type: binding; details: for Fluorescence competitive binding assay, fluorescence intensity: OBP1, three replicate columns
How it was run: as §1

SfurOBP2 = SfurOBP2 (Sogatella furcifera, UniProt V5T759); test: biochemical; type: binding
How it was run: as §1

SfurOBP11 = SfurOBP11 (Sogatella furcifera, UniProt V5T6E3); test: biochemical; type: binding
How it was run: as §1

SfurOBP3, sequence (V5T818 entry or part of it): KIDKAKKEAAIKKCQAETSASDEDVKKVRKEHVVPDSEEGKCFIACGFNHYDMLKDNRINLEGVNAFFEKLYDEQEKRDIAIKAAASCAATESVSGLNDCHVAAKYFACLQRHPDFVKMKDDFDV
SfurOBP11, sequence (V5T6E3 entry or part of it): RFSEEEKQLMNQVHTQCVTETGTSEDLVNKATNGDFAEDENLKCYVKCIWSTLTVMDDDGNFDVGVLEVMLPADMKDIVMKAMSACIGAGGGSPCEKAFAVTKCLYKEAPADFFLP
SfurOBP2, sequence (V5T759 entry or part of it): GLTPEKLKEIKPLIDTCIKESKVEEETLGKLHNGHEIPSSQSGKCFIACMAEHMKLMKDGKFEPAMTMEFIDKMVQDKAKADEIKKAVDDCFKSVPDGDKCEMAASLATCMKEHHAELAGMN
SfurOBP1, sequence (V5T8N5 entry or part of it): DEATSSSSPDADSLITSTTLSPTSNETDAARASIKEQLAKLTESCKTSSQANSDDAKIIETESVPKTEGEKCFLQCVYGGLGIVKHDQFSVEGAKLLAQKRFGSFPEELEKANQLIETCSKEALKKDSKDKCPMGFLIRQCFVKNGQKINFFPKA

C=C(C)C1CC=C(C)CC1 (single isomer, unassigned; (+)) [(+)-limonene]
behavioral response of S. furcifera (in words) (S. furcifera adults): strongly attracted
number of insects choosing hexane arm (S. furcifera adults; adults): 7
number of insects choosing volatilies arm (S. furcifera adults; adults): 16
number of insects failed (no choice) (S. furcifera adults; adults): 17
Fluorescence competitive binding assay, fluorescence intensity (SfurOBP3; ligand concentration 2): 51848 and 49151 and 50500
Fluorescence competitive binding assay, fluorescence intensity (SfurOBP3; ligand concentration 4): 50802 and 50041 and 48259
Fluorescence competitive binding assay, fluorescence intensity (SfurOBP3; ligand concentration 6): 50158 and 49686 and 49223
Fluorescence competitive binding assay, fluorescence intensity (SfurOBP3; ligand concentration 8): 48228 and 50693 and 49450
Fluorescence competitive binding assay, fluorescence intensity (SfurOBP3; ligand concentration 10): 46402 and 47349 and 46178
Fluorescence competitive binding assay, fluorescence intensity (SfurOBP3; ligand concentration 12): 39434 and 38976 and 40288
Fluorescence competitive binding assay, fluorescence intensity (SfurOBP3; ligand concentration 14): 38805 and 38818 and 38804
Fluorescence competitive binding assay, fluorescence intensity (SfurOBP3; ligand concentration 16): 34272 and 34325 and 34139
Fluorescence competitive binding assay, fluorescence intensity (SfurOBP3; ligand concentration 18): 33102 and 34070 and 35044
Fluorescence competitive binding assay, fluorescence intensity (SfurOBP3; ligand concentration 20): 32236 and 31361 and 31799
IC50 (SfurOBP3; SfurOBP3, protein and 1-NPN both 2.0 µM, competitor 2-20 µM, read-out: IC50): > 20 µM
Fluorescence competitive binding assay, fluorescence intensity (SfurOBP1; ligand concentration 2 (μM)): 5110 and 5104 and 5112
Fluorescence competitive binding assay, fluorescence intensity (SfurOBP1; ligand concentration 4 (μM)): 5716 and 6377 and 5308
Fluorescence competitive binding assay, fluorescence intensity (SfurOBP1; ligand concentration 6 (μM)): 6462 and 7662 and 6319
Fluorescence competitive binding assay, fluorescence intensity (SfurOBP1; ligand concentration 8 (μM)): 6113 and 5754 and 14807
Fluorescence competitive binding assay, fluorescence intensity (SfurOBP1; ligand concentration 10 (μM)): 5995 and 6375 and 7413
Fluorescence competitive binding assay, fluorescence intensity (SfurOBP1; ligand concentration 12 (μM)): 5970 and 7970 and 8226
Fluorescence competitive binding assay, fluorescence intensity (SfurOBP1; ligand concentration 14 (μM)): 5770 and 8418 and 5488
Fluorescence competitive binding assay, fluorescence intensity (SfurOBP1; ligand concentration 16 (μM)): 4972 and 5953 and 5038
Fluorescence competitive binding assay, fluorescence intensity (SfurOBP1; ligand concentration 18 (μM)): 6525 and 7403 and 8592
Fluorescence competitive binding assay, fluorescence intensity (SfurOBP1; ligand concentration 20 (μM)): 7343 and 8136 and 7739
IC50 (SfurOBP1; SfurOBP1, protein and 1-NPN both 2.0 µM, competitor 2-20 µM, read-out: IC50): > 20 µM
IC50 (SfurOBP2; SfurOBP2, protein and 1-NPN both 2.0 µM, competitor 2-20 µM, read-out: IC50): > 20 µM
Fluorescence competitive binding assay, OBP2 (raw fluorescence reading) (SfurOBP2; ligand concentration 2 (unit not given), replicate column 1 of 3): 18785
Fluorescence competitive binding assay, OBP2 (raw fluorescence reading) (SfurOBP2; ligand concentration 2 (unit not given), replicate column 2 of 3): 17646
Fluorescence competitive binding assay, OBP2 (raw fluorescence reading) (SfurOBP2; ligand concentration 2 (unit not given), replicate column 3 of 3): 18955
Fluorescence competitive binding assay, OBP2 (raw fluorescence reading) (SfurOBP2; ligand concentration 4 (unit not given), replicate column 1 of 3): 19168
Fluorescence competitive binding assay, OBP2 (raw fluorescence reading) (SfurOBP2; ligand concentration 4 (unit not given), replicate column 2 of 3): 18029
Fluorescence competitive binding assay, OBP2 (raw fluorescence reading) (SfurOBP2; ligand concentration 4 (unit not given), replicate column 3 of 3): 18599
Fluorescence competitive binding assay, OBP2 (raw fluorescence reading) (SfurOBP2; ligand concentration 6 (unit not given), replicate column 1 of 3): 18726
Fluorescence competitive binding assay, OBP2 (raw fluorescence reading) (SfurOBP2; ligand concentration 6 (unit not given), replicate column 2 of 3): 17846
Fluorescence competitive binding assay, OBP2 (raw fluorescence reading) (SfurOBP2; ligand concentration 6 (unit not given), replicate column 3 of 3): 18376
Fluorescence competitive binding assay, OBP2 (raw fluorescence reading) (SfurOBP2; ligand concentration 8 (unit not given), replicate column 1 of 3): 17673
Fluorescence competitive binding assay, OBP2 (raw fluorescence reading) (SfurOBP2; ligand concentration 8 (unit not given), replicate column 2 of 3): 18323
Fluorescence competitive binding assay, OBP2 (raw fluorescence reading) (SfurOBP2; ligand concentration 8 (unit not given), replicate column 3 of 3): 17474
Fluorescence competitive binding assay, OBP2 (raw fluorescence reading) (SfurOBP2; ligand concentration 10 (unit not given), replicate column 1 of 3): 16329
Fluorescence competitive binding assay, OBP2 (raw fluorescence reading) (SfurOBP2; ligand concentration 10 (unit not given), replicate column 2 of 3): 16489
Fluorescence competitive binding assay, OBP2 (raw fluorescence reading) (SfurOBP2; ligand concentration 10 (unit not given), replicate column 3 of 3): 16675
Fluorescence competitive binding assay, OBP2 (raw fluorescence reading) (SfurOBP2; ligand concentration 12 (unit not given), replicate column 1 of 3): 16493
Fluorescence competitive binding assay, OBP2 (raw fluorescence reading) (SfurOBP2; ligand concentration 12 (unit not given), replicate column 2 of 3): 16176
Fluorescence competitive binding assay, OBP2 (raw fluorescence reading) (SfurOBP2; ligand concentration 12 (unit not given), replicate column 3 of 3): 16335
Fluorescence competitive binding assay, OBP2 (raw fluorescence reading) (SfurOBP2; ligand concentration 14 (unit not given), replicate column 1 of 3): 13873
Fluorescence competitive binding assay, OBP2 (raw fluorescence reading) (SfurOBP2; ligand concentration 14 (unit not given), replicate column 2 of 3): 13950
Fluorescence competitive binding assay, OBP2 (raw fluorescence reading) (SfurOBP2; ligand concentration 14 (unit not given), replicate column 3 of 3): 13912
Fluorescence competitive binding assay, OBP2 (raw fluorescence reading) (SfurOBP2; ligand concentration 16 (unit not given), replicate column 1 of 3): 12506
Fluorescence competitive binding assay, OBP2 (raw fluorescence reading) (SfurOBP2; ligand concentration 16 (unit not given), replicate column 2 of 3): 13445
Fluorescence competitive binding assay, OBP2 (raw fluorescence reading) (SfurOBP2; ligand concentration 16 (unit not given), replicate column 3 of 3): 12627
Fluorescence competitive binding assay, OBP2 (raw fluorescence reading) (SfurOBP2; ligand concentration 18 (unit not given), replicate column 1 of 3): 13201
Fluorescence competitive binding assay, OBP2 (raw fluorescence reading) (SfurOBP2; ligand concentration 18 (unit not given), replicate column 2 of 3): 13156
Fluorescence competitive binding assay, OBP2 (raw fluorescence reading) (SfurOBP2; ligand concentration 18 (unit not given), replicate column 3 of 3): 13110
Fluorescence competitive binding assay, OBP2 (raw fluorescence reading) (SfurOBP2; ligand concentration 20 (unit not given), replicate column 1 of 3): 12573
Fluorescence competitive binding assay, OBP2 (raw fluorescence reading) (SfurOBP2; ligand concentration 20 (unit not given), replicate column 2 of 3): 13554
Fluorescence competitive binding assay, OBP2 (raw fluorescence reading) (SfurOBP2; ligand concentration 20 (unit not given), replicate column 3 of 3): 12438
IC50 (SfurOBP11; SfurOBP11, protein and 1-NPN both 2.0 µM, competitor 2-20 µM, read-out: IC50): > 20 µM
Fluorescence intensity, fluorescence competitive binding assay, OBP11 (SfurOBP11; ligand concentration 2, replicate 1): 20185
Fluorescence intensity, fluorescence competitive binding assay, OBP11 (SfurOBP11; ligand concentration 2, replicate 2): 20635
Fluorescence intensity, fluorescence competitive binding assay, OBP11 (SfurOBP11; ligand concentration 2, replicate 3): 20374
Fluorescence intensity, fluorescence competitive binding assay, OBP11 (SfurOBP11; ligand concentration 4, replicate 1): 19119
Fluorescence intensity, fluorescence competitive binding assay, OBP11 (SfurOBP11; ligand concentration 4, replicate 2): 21150
Fluorescence intensity, fluorescence competitive binding assay, OBP11 (SfurOBP11; ligand concentration 4, replicate 3): 19404
Fluorescence intensity, fluorescence competitive binding assay, OBP11 (SfurOBP11; ligand concentration 6, replicate 1): 20124
Fluorescence intensity, fluorescence competitive binding assay, OBP11 (SfurOBP11; ligand concentration 6, replicate 2): 20072
Fluorescence intensity, fluorescence competitive binding assay, OBP11 (SfurOBP11; ligand concentration 6, replicate 3): 19868
Fluorescence intensity, fluorescence competitive binding assay, OBP11 (SfurOBP11; ligand concentration 8, replicate 1): 18585
Fluorescence intensity, fluorescence competitive binding assay, OBP11 (SfurOBP11; ligand concentration 8, replicate 2): 21246
Fluorescence intensity, fluorescence competitive binding assay, OBP11 (SfurOBP11; ligand concentration 8, replicate 3): 19916
Fluorescence intensity, fluorescence competitive binding assay, OBP11 (SfurOBP11; ligand concentration 10, replicate 1): 19564
Fluorescence intensity, fluorescence competitive binding assay, OBP11 (SfurOBP11; ligand concentration 10, replicate 2): 19568
Fluorescence intensity, fluorescence competitive binding assay, OBP11 (SfurOBP11; ligand concentration 10, replicate 3): 19649
Fluorescence intensity, fluorescence competitive binding assay, OBP11 (SfurOBP11; ligand concentration 12, replicate 1): 19387
Fluorescence intensity, fluorescence competitive binding assay, OBP11 (SfurOBP11; ligand concentration 12, replicate 2): 19954
Fluorescence intensity, fluorescence competitive binding assay, OBP11 (SfurOBP11; ligand concentration 12, replicate 3): 20491
Fluorescence intensity, fluorescence competitive binding assay, OBP11 (SfurOBP11; ligand concentration 14, replicate 1): 19217
Fluorescence intensity, fluorescence competitive binding assay, OBP11 (SfurOBP11; ligand concentration 14, replicate 2): 19676
Fluorescence intensity, fluorescence competitive binding assay, OBP11 (SfurOBP11; ligand concentration 14, replicate 3): 19052
Fluorescence intensity, fluorescence competitive binding assay, OBP11 (SfurOBP11; ligand concentration 16, replicate 1): 18294
Fluorescence intensity, fluorescence competitive binding assay, OBP11 (SfurOBP11; ligand concentration 16, replicate 2): 18202
Fluorescence intensity, fluorescence competitive binding assay, OBP11 (SfurOBP11; ligand concentration 16, replicate 3): 18385
Fluorescence intensity, fluorescence competitive binding assay, OBP11 (SfurOBP11; ligand concentration 18, replicate 1): 17514
Fluorescence intensity, fluorescence competitive binding assay, OBP11 (SfurOBP11; ligand concentration 18, replicate 2): 18012
Fluorescence intensity, fluorescence competitive binding assay, OBP11 (SfurOBP11; ligand concentration 18, replicate 3): 18287
Fluorescence intensity, fluorescence competitive binding assay, OBP11 (SfurOBP11; ligand concentration 20, replicate 1): 16634
Fluorescence intensity, fluorescence competitive binding assay, OBP11 (SfurOBP11; ligand concentration 20, replicate 2): 17062
Fluorescence intensity, fluorescence competitive binding assay, OBP11 (SfurOBP11; ligand concentration 20, replicate 3): 17452
